Test results taken from the supplement of paper PMC13380429.
± gives the standard deviation of the averaged measurements.

Legend:
Details in all cases: 72 h
Caco-2 [1] = experiment: cell viability relative to DMSO; higher = less toxic
Calu-3 [2] = experiment: as above
HepG2 [3] = experiment: as above
U2OS [4] = experiment: as above
Vero E6 [5] = experiment: as above
Caco-2 [6] = experiment: relative viability EC50 (midpoint between 100% and the lowest measured viability); higher = less toxic
Calu-3 [7] = experiment: as above
HepG2 [8] = experiment: as above
U2OS [9] = experiment: as above
Vero E6 [10] = experiment: as above
Caco-2 [11] = experiment: drug sensitivity score (DSS) for viability; higher = more toxic; extreme values may be limits of the assay
Calu-3 [12] = experiment: as above
HepG2 [13] = experiment: as above
U2OS [14] = experiment: as above
Vero E6 [15] = experiment: as above

| SMILES | cell viability (Caco-2 [1]; 1 nM) [%] | cell viability (Caco-2 [1]; 10 nM) [%] | cell viability (Caco-2 [1]; 100 nM) [%] | cell viability (Caco-2 [1]; 1000 nM) [%] | cell viability (Caco-2 [1]; 10000 nM) [%] | cell viability (Calu-3 [2]; 1 nM) [%] | cell viability (Calu-3 [2]; 10 nM) [%] | cell viability (Calu-3 [2]; 100 nM) [%] | cell viability (Calu-3 [2]; 1000 nM) [%] | cell viability (Calu-3 [2]; 10000 nM) [%] | cell viability (HepG2 [3]; 1 nM) [%] | cell viability (HepG2 [3]; 10 nM) [%] | cell viability (HepG2 [3]; 100 nM) [%] | cell viability (HepG2 [3]; 1000 nM) [%] | cell viability (HepG2 [3]; 10000 nM) [%] | cell viability (U2OS [4]; 1 nM) [%] | cell viability (U2OS [4]; 10 nM) [%] | cell viability (U2OS [4]; 100 nM) [%] | cell viability (U2OS [4]; 1000 nM) [%] | cell viability (U2OS [4]; 10000 nM) [%] | cell viability (Vero E6 [5]; 1 nM) [%] | cell viability (Vero E6 [5]; 10 nM) [%] | cell viability (Vero E6 [5]; 100 nM) [%] | cell viability (Vero E6 [5]; 1000 nM) [%] | cell viability (Vero E6 [5]; 10000 nM) [%] | relative viability EC50 (Caco-2 [6]) [µM] | relative viability EC50 (Calu-3 [7]) [µM] | relative viability EC50 (HepG2 [8]) [µM] | relative viability EC50 (U2OS [9]) [µM] | relative viability EC50 (Vero E6 [10]) [µM] | drug sensitivity score (Caco-2 [11]) | drug sensitivity score (Calu-3 [12]) | drug sensitivity score (HepG2 [13]) | drug sensitivity score (U2OS [14]) | drug sensitivity score (Vero E6 [15]) |
| --- | --- | --- | --- | --- | --- | --- | --- | --- | --- | --- | --- | --- | --- | --- | --- | --- | --- | --- | --- | --- | --- | --- | --- | --- | --- | --- | --- | --- | --- | --- | --- | --- | --- | --- | --- |
| O=c1c(-c2ccc(O)cc2)coc2cc(O)cc(O)c12 [genistein] | 102 | 96.6 | 105 | 97 | 90.3 | 96.4 | 91.5 | 98.1 | 103 | 82.9 | 95.2 | 89.9 | 95.9 | 102 | 82.6 | 93.9 | 98.8 | 87.1 | 87 | 95.4 | 102 | 108 | 108 | 96.1 | 97.2 | > 10 | > 10 | > 10 | > 10 | > 10 | 0 | 0.3 | 0.3 | 0 | 0 |
| O=C(O)CNC(=O)c1ccccc1 [hippuric-acid] | 96.9 | 107 | 89.2 | 90 | 92.8 | 99 | 97.6 | 94.3 | 96.6 | 99.9 | 100 | 98.3 | 99.4 | 102 | 95.7 | 100 | 99.3 | 106 | 95.2 | 95.7 | 96 | 98.1 | 97.1 | 94.7 | 100 | > 10 | > 10 | > 10 | > 10 | > 10 | 0.4 | 0 | 0 | 0 | 0 |
| Cc1nccn1CCC(C(N)=O)(c1ccccc1)c1ccccc1 [imidafenacin] | 99.4 | 91.8 | 92.8 | 87.3 | 93.4 | 106 | 107 | 106 | 97.9 | 102 | 101 | 97.3 | 97.5 | 95 | 92.5 | 99 | 94 | 101 | 96.4 | 96.5 | 97.9 | 100 | 95.5 | 99.2 | 97.2 | > 10 | > 10 | > 10 | > 10 | > 10 | 0.1 | 0 | 0 | 0 | 0 |
| CC(=O)N(C)c1cccc(-c2ccnc3c(C(=O)c4cccs4)cnn23)c1 [indiplon] | 100 | 92.6 | 93.5 | 103 | 92.1 | 99.4 | 98.2 | 91.6 | 96.3 | 101 | 100 | 103 | 97.3 | 96.7 | 77.3 | 112 | 99.4 | 101 | 96.5 | 100 | 105 | 102 | 97.1 | 107 | 91.3 | > 10 | > 10 | > 10 | > 10 | > 10 | 0 | 0 | 1.3 | 0 | 0 |
| N=C(N)NCc1cccc(I)c1 [iobenguane] | 114 | 100 | 118 | 85.6 | 81.4 | 110 | 98.9 | 107 | 111 | 98.6 | 104 | 91.6 | 79.8 | 79.3 | 83 | 97.6 | 99.8 | 99.1 | 95.2 | 95.9 | 100 | 104 | 111 | 102 | 87.7 | > 10 | > 10 | > 10 | > 10 | > 10 | 1.7 | 0 | 6.1 | 0 | 0 |
| CC(=O)N(CC(C)C(=O)O)c1c(I)cc(I)c(N)c1I (stereo not given) [iocetamic-acid] | 101 | 99.3 | 90.6 | 95.5 | 99.9 | 97.3 | 98.6 | 91.5 | 90.3 | 95.4 | 93 | 102 | 99.8 | 102 | 96.1 | 98.2 | 103 | 104 | 102 | 101 | 107 | 103 | 97.3 | 105 | 101 | > 10 | > 10 | > 10 | > 10 | > 10 | 0 | 0 | 0 | 0 | 0 |
| O=C1CC[C@@](c2ccccc2)(C2CCN(Cc3ccc(I)cc3)CC2)C(=O)N1 [iododexetimide] | 89 | 104 | 98.1 | 97.7 | 93.9 | 97.8 | 110 | 102 | 107 | 104 | 107 | 96.4 | 92.5 | 87.5 | 83.6 | 98.8 | 95.5 | 94.3 | 100 | 90.4 | 98.7 | 100 | 102 | 100 | 93 | > 10 | > 10 | > 10 | > 10 | > 10 | 0 | 0 | 1.4 | 0 | 0 |
| CC(C)[N+](C)(CCC(C(N)=O)(c1ccccc1)c1ccccc1)C(C)C [isopropamide-iodide] | 102 | 94.2 | 98.1 | 93.9 | 101 | 97.2 | 90.1 | 96.2 | 94.1 | 87.1 | 98.1 | 108 | 93.5 | 100 | 102 | 104 | 99.8 | 103 | 98.4 | 100 | 102 | 104 | 101 | 99.4 | 98.6 | > 10 | > 10 | > 10 | > 10 | > 10 | 0 | 0 | 0 | 0 | 0 |
| O[C@@H]1CO[C@H]2[C@@H]1OC[C@@H]2O [isosorbide] | 94.8 | 93.7 | 91.4 | 102 | 99.8 | 97.3 | 97.6 | 106 | 101 | 111 | 93.4 | 92.5 | 106 | 99.6 | 105 | 96.8 | 98.9 | 95 | 98.8 | 94.4 | 96.7 | 100 | 97.5 | 92.9 | 99.8 | > 10 | > 10 | > 10 | > 10 | > 10 | 0 | 0 | 0 | 0 | 0 |
| O=C(O)c1ccccc1C(=O)Nc1ccc(-c2ccccc2)cc1 [kartogenin] | 99.2 | 90.6 | 89.7 | 94.2 | 93.7 | 98.2 | 101 | 105 | 102 | 103 | 98.4 | 98.4 | 92.7 | 97.3 | 106 | 103 | 104 | 100 | 98.6 | 100 | 103 | 99 | 105 | 97.7 | 98.1 | > 10 | > 10 | > 10 | > 10 | > 10 | 0 | 0 | 0 | 0 | 0 |
| O=C(c1ccccc1)c1ccc2n1CCC2C(=O)O (stereo not given) [ketorolac] | 103 | 123 | 110 | 98.3 | 91.8 | 95.7 | 109 | 110 | 99.5 | 104 | 102 | 107 | 113 | 97.7 | 87.2 | 99.5 | 105 | 104 | 96.6 | 92.9 | 102 | 104 | 108 | 105 | 96.1 | > 10 | > 10 | > 10 | > 10 | > 10 | 0 | 0 | 0.2 | 0 | 0 |
| CC(=O)NCCc1c(Cc2ccccc2)[nH]c2ccccc12 [luzindole] | 97.4 | 105 | 106 | 103 | 102 | 98.6 | 102 | 105 | 104 | 96.2 | 103 | 99.9 | 104 | 95.5 | 110 | 102 | 103 | 100 | 104 | 96.9 | 95.9 | 99 | 95.1 | 94.6 | 97.4 | > 10 | > 10 | > 10 | > 10 | > 10 | 0 | 0 | 0 | 0 | 0 |
| Cc1cccc(C(C)c2c[nH]cn2)c1C (stereo not given) [medetomidine] | 97.85 ± 0.35 | 88 ± 1.9 | 99.2 ± 5.2 | 100 ± 3.1 | 99.1 ± 1.6 | 104 ± 2.5 | 98.5 ± 14 | 103 ± 2.5 | 105 ± 11 | 95.2 ± 0.57 | 92.5 ± 2.5 | 106 ± 1.3 | 101 ± 2.7 | 102 ± 9.6 | 111.4 ± 0.14 | 100 ± 2.2 | 96.1 ± 0.71 | 102 ± 5.5 | 94.5 ± 0.42 | 97.6 ± 6.1 | 95.3 ± 0.57 | 97.5 ± 0.99 | 92.5 ± 3.8 | 99.75 ± 0.071 | 101 ± 3.2 | > 10 | > 10 | > 10 | > 10 | > 10 | 0 | 0 | 0 | 0 | 0 |
